Target: recombinant IL4I1 (Homo sapiens (Human), UniProt Q96RQ9)
Test: IL4I1 Enzymatic Assay (Amplex Red/HRP coupled fluorescence detection of H2O2)
Type: biochemical
Details: 240 min; recombinant IL4I1, four-hour pre-incubation with compound
Summary of the method: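 Recombinant human IL4I1 (1 nM final) pre-incubated 4 h with compound at ambient temperature in 50 mM Hepes pH 7.0, 0.005% Tween20. Started with 1 mM each Phe/Tyr/Trp plus Amplex Red/HRP; H2O2-derived resorufin fluorescence read after 120 min; EC50 from ten-point 1:3 titration, four-parameter fit.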

recombinant IL4I1, sequence (Q96RQ9 22-567): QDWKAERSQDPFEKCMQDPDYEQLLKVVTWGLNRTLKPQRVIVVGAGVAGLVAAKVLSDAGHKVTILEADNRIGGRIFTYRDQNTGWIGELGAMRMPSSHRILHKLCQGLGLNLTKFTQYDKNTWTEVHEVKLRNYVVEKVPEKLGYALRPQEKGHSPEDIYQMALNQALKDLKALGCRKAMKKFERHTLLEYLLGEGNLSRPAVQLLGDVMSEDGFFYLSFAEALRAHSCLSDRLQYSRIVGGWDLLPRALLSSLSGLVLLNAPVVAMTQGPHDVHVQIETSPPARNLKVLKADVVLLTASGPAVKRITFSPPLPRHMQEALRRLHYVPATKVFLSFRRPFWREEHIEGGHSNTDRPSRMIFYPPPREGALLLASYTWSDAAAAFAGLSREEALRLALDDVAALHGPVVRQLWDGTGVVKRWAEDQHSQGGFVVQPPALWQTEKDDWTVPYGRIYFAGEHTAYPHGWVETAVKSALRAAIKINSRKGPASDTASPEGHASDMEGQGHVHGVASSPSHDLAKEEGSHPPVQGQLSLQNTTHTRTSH

SMILES	EC50 [nM]
O=C1C(=O)N(C23CC(C2)C3)CCN1Cc1ccc(-c2cccc(F)c2)nn1 [Example 65, 1-(bicyclo[1.1.1]pentan-1-yl)-4-((6-(3-fluorophenyl)pyridazin-3-yl)methyl)piperazine-2,3-dione]	4
CC1(n2ccn(Cc3ccc(-c4cccnc4)nn3)c(=O)c2=O)CC1 [Example 90, 1-(1-methylcyclopropyl)-4-((6-(pyridin-3-yl)pyridazin-3-yl)methyl)-1,4-dihydropyrazine-2,3-dione]	63
O=C1C(=O)N([C@H]2C[C@H]3C[C@H]3C2)CCN1Cc1ccc(-c2ccccc2F)nn1 [Example 62, 1-((cis)-bicyclo[3.1.0]hexan-3-yl)-4-((6-(2-fluorophenyl)pyridazin-3-yl)methyl)piperazine-2,3-dione]	4
O=c1c(=O)n(C23CC(C2)C3)ccn1Cc1ccc(-c2nccs2)nn1 [Example 366, 1-(bicyclo[1.1.1]pentan-1-yl)-4-((6-(thiazol-2-yl)pyridazin-3-yl)methyl)-1,4-dihydropyrazine-2,3-dione]	9
O=C1C(=O)N(C23CC(C2)C3)CCN1Cc1cnc(-n2nccn2)cn1 [Example 325, 1-((5-(2H-1,2,3-triazol-2-yl)pyrazin-2-yl)methyl)-4-(bicyclo[1.1.1]pentan-1-yl)piperazine-2,3-dione]	33
O=c1c(=O)n(C23CC(C2)C3)ccn1Cc1cc(-c2ccc(F)cc2)on1 [Example 419, 1-(bicyclo[1.1.1]pentan-1-yl)-4-((5-(4-fluorophenyl)isoxazol-3-yl)methyl)-1,4-dihydropyrazine-2,3-dione]	2
O=c1c(=O)n([C@H]2C[C@H]3C[C@H]3C2)ccn1Cc1ccc(-c2ccccc2F)nn1 [Example 50, 1-((cis)-bicyclo[3.1.0]hexan-3-yl)-4-((6-(2-fluorophenyl)pyridazin-3-yl)methyl)-1,4-dihydropyrazine-2,3-dione]	4
O=c1c(=O)n(C23CC(F)(C2)C3)ccn1Cc1ccc(-n2ccnn2)nc1 [Example 230, 1-((6-(1H-1,2,3-triazol-1-yl)pyridin-3-yl)methyl)-4-(3-fluorobicyclo[1.1.1]pentan-1-yl)-1,4-dihydropyrazine-2,3-dione]	91
O=c1c(=O)n(C2CCC2)ccn1Cc1ccc(-n2nccn2)nc1 [Example 409, 1-((6-(2H-1,2,3-triazol-2-yl)pyridin-3-yl)methyl)-4-cyclobutyl-1,4-dihydropyrazine-2,3-dione]	9
O=c1c(=O)n(C23CC(C2)C3)ccn1Cc1cn(-c2cccnc2)nn1 [Example 428, 1-(bicyclo[1.1.1]pentan-1-yl)-4-((1-(pyridin-3-yl)-1H-1,2,3-triazol-4-yl)methyl)-1,4-dihydropyrazine-2,3-dione]	21
O=C1C(=O)N([C@@H]2CC[C@@H](c3ccccc3)C2)CCN1Cc1nnc(-c2ccccc2)s1 (single isomer, unassigned) [Example 440C, (R or S, R or S)-1-((5-phenyl-1,3,4-thiadiazol-2-yl)methyl)-4-(3-phenylcyclopentyl)piperazine-2,3-dione]	10
O=C1C(=O)N(C2CCCC2)CCN1Cc1ccc(-c2ccccc2)[n+]([O-])c1 [Example 267, 5-((4-cyclopentyl-2,3-dioxopiperazin-1-yl)methyl)-2-phenylpyridine 1-oxide]	57
O=C1C(=O)N(C2CCCC2)CCN1Cc1cc(-c2ccccc2)no1 [Example 358A, 1-cyclopentyl-4-((3-phenylisoxazol-5-yl)methyl)piperazine-2,3-dione]	2
O=C1C(=O)N(C2CC3CC2C3)CCN1Cc1ccc(-c2ccccc2)nn1 (centres unmarked) [Example 183, 1-(bicyclo[2.1.1]hexan-2-yl)-4-((6-phenylpyridazin-3-yl)methyl)piperazine-2,3-dione]	24
O=c1c(=O)n([C@H]2C[C@H]3C[C@H]3C2)ccn1Cc1ccc(-c2ccccc2)nn1 [Example 58, 1-((cis)-bicyclo[3.1.0]hexan-3-yl)-4-((6-phenylpyridazin-3-yl)methyl)-1,4-dihydropyrazine-2,3-dione]	4
O=c1c(=O)n(C2CCC2)ccn1Cc1cc(-c2cccc(F)c2)no1 [Example 157, 1-cyclobutyl-4-((3-(3-fluorophenyl)isoxazol-5-yl)methyl)-1,4-dihydropyrazine-2,3-dione]	1
O=c1c(=O)n(C2CCCC2)ccn1Cc1cc(-c2ccccn2)no1 [Example 163, 1-cyclopentyl-4-((3-(pyridin-2-yl)isoxazol-5-yl)methyl)-1,4-dihydropyrazine-2,3-dione]	6
N#CC1(n2ccn(Cc3ccc(-c4ccccn4)cn3)c(=O)c2=O)CC1 [Example 92, 1-(4-([2,3′-bipyridin]-6′-ylmethyl)-2,3-dioxo-3,4-dihydropyrazin-1(2H)-yl)cyclopropane-1-carbonitrile]	155
O=C1C(=O)N(C2CCCC2)CCN1CCc1cc2ccccc2nn1 [Example 269, 1-(2-(cinnolin-3-yl)ethyl)-4-cyclopentylpiperazine-2,3-dione]	49

SMILES	EC50 [nM]
CC(c1ncc(-c2ccccc2)cn1)N1CCN(C2CCCC2)C(=O)C1=O (single isomer, unassigned) [Example 133, (R or S)-1-cyclopentyl-4-(1-(5-phenylpyrimidin-2-yl)ethyl)piperazine-2,3-dione]	22
O=c1c(=O)n(C23CC(C2)C3)ccn1Cc1ccc(-c2cncs2)nn1 [Example 95, 1-(bicyclo[1.1.1]pentan-1-yl)-4-((6-(thiazol-5-yl)pyridazin-3-yl)methyl)-1,4-dihydropyrazine-2,3-dione]	16
O=C1C(=O)N(C2CCCC2)CCN1Cc1ccc(-n2nccn2)nn1 [Example 322, 1-((6-(2H-1,2,3-triazol-2-yl)pyridazin-3-yl)methyl)-4-cyclopentylpiperazine-2,3-dione]	28
O=c1c(=O)n(C2CCCC2)ccn1Cc1ncc(-c2ccccc2)cn1 [Example 337, 1-cyclopentyl-4-((5-phenylpyrimidin-2-yl)methyl)-1,4-dihydropyrazine-2,3-dione]	15
O=C1C(=O)N(C2CC3CC2C3)CCN1Cc1ccc(-c2ccccc2F)nn1 (centres unmarked) [Example 184, 1-(bicyclo[2.1.1]hexan-2-yl)-4-((6-(2-fluorophenyl)pyridazin-3-yl)methyl)piperazine-2,3-dione]	25
O=C1C(=O)N(C2(C(F)(F)F)CCC2)CCN1Cc1nnc(-c2ccccc2)s1 [Example 298, 1-((5-phenyl-1,3,4-thiadiazol-2-yl)methyl)-4-(1-(trifluoromethyl)cyclobutyl)piperazine-2,3-dione]	32
O=C1C(=O)N(C2CCC2)CCN1Cc1ncc(-n2nccn2)cc1F [Example 400, 1-cyclobutyl-4-((3-fluoro-5-(2H-1,2,3-triazol-2-yl)pyridin-2-yl)methyl)piperazine-2,3-dione]	25
O=C1C(=O)N(C2CCC2)CCN1Cc1ccc(-c2cncs2)nn1 [Example 395, 1-cyclobutyl-4-((6-(thiazol-5-yl)pyridazin-3-yl)methyl)piperazine-2,3-dione]	8
O=C1C(=O)N([C@H]2C[C@H]3C[C@H]3C2)CCN1Cc1ccc(-c2ccccc2F)nn1 [Example 51, 1-((1R,3r,5S)-bicyclo[3.1.0]hexan-3-yl)-4-((6-(2-fluorophenyl)pyridazin-3-yl)methyl)piperazine-2,3-dione]	8
O=C1C(=O)N([C@H]2C[C@H]3C[C@H]3C2)CCN1Cc1ccc(-c2nccs2)nn1 [Example 374, 1-((cis)-bicyclo[3.1.0]hexan-3-yl)-4-((6-(thiazol-2-yl)pyridazin-3-yl)methyl)piperazine-2,3-dione]	8
O=C1C(=O)N(C23CC(F)(C2)C3)CCN1Cc1ccc(-c2nccs2)nn1 [Example 234, 1-(3-fluorobicyclo[1.1.1]pentan-1-yl)-4-((6-(thiazol-2-yl)pyridazin-3-yl)methyl)piperazine-2,3-dione]	40
O=C1C(=O)N(C23CC(F)(C2)C3)CCN1Cc1ccc(-c2ccccn2)cn1 [Example 254, 1-([2,3′-bipyridin]-6′-ylmethyl)-4-(3-fluorobicyclo[1.1.1]pentan-1-yl)piperazine-2,3-dione]	93
O=C1C(=O)N(C2CCC2)CCN1Cc1cc(-c2ccccc2)on1 [Example 105, 1-cyclobutyl-4-((5-phenylisoxazol-3-yl)methyl)piperazine-2,3-dione]	2
O=C1C(=O)N(C23CC(C2)C3)CCN1Cc1ccc(-c2ccccc2)nn1 [Example 38, 1-(bicyclo[1.1.1]pentan-1-yl)-4-((6-phenylpyridazin-3-yl)methyl)piperazine-2,3-dione]	23
CC1(n2ccn(Cc3ccc(-c4ccccn4)nn3)c(=O)c2=O)CC1 [Example 87, 1-(1-methylcyclopropyl)-4-((6-(pyridin-2-yl)pyridazin-3-yl)methyl)-1,4-dihydropyrazine-2,3-dione]	87
O=C1C(=O)N(C2CCC2)CCN1Cc1cnc(-c2ccccc2)c(F)c1 [Example 123, 1-cyclobutyl-4-((5-fluoro-6-phenylpyridin-3-yl)methyl)piperazine-2,3-dione]	5
CC1(n2ccn(Cc3cn(-c4ccccn4)nn3)c(=O)c2=O)CC1 [Example 430, 1-(1-methylcyclopropyl)-4-((1-(pyridin-2-yl)-1H-1,2,3-triazol-4-yl)methyl)-1,4-dihydropyrazine-2,3-dione]	183
O=c1c(=O)n(C2CCC2)ccn1Cc1ccc(-n2nccn2)cn1 [Example 397, 1-((5-(2H-1,2,3-triazol-2-yl)pyridin-2-yl)methyl)-4-cyclobutyl-1,4-dihydropyrazine-2,3-dione]	11
O=c1c(=O)n(C2CCC2)ccn1Cc1ncc(-c2ccccc2)cn1 [Example 143, 1-cyclobutyl-4-((5-phenylpyrimidin-2-yl)methyl)-1,4-dihydropyrazine-2,3-dione]	15
